Assay results as given in ChEMBL document CHEMBL3525905, “Brain distribution and bioavailability of elacridar after different routes of administration in the mouse” (Drug Metab Dispos, 2012).

Legend:
[1] = system: Plasma; experiment: AUC (0 to infinity) in wild type FVB mouse plasma at 100 mg/kg, ip; format: ADME, organism-based; parameters: time infinity, dose 100 mg/kg, route intraperitoneal; details: in vivo
[2] = Apparent oral volume of distribution in wild type FVB mouse plasma at 100 mg/kg, ip; format: ADME, organism-based; parameters: dose 100 mg/kg
[3] = Cmax in wild type FVB mouse brain at 100 mg/kg, po; format: ADME, organism-based; parameters: dose 100 mg/kg, route oral
[4] = Tmax in wild type FVB mouse brain at 100 mg/kg, ip; format: ADME, organism-based; parameters: dose 100 mg/kg, route intraperitoneal
[5] = Terminal half life in wild type FVB mouse plasma at 100 mg/kg, po; format: ADME, organism-based; parameters: dose 100 mg/kg, route oral; details: read-out: beta t1/2 (converted)
[6] = Cmax in wild type FVB mouse brain at 100 mg/kg, ip; format: ADME, organism-based; parameters: dose 100 mg/kg, route intraperitoneal
[7] = Terminal half life in wild type FVB mouse brain at 2.5 mg/kg, iv; format: ADME, organism-based; parameters: dose 2.5 mg/kg, route intravenous; details: read-out: beta t1/2 (converted)
[8] = Apparent oral volume of distribution in wild type FVB mouse at 100 mg/kg, po; format: ADME, organism-based; parameters: dose 100 mg/kg, route oral; details: plasma
[9] = Cmax in wild type FVB mouse plasma at 100 mg/kg, ip; format: ADME, organism-based; parameters: dose 100 mg/kg, route intraperitoneal
[10] = Tmax in wild type FVB mouse brain at 100 mg/kg, po; format: ADME, organism-based; parameters: dose 100 mg/kg, route oral
[11] = AUC (0 to infinity) in wild type FVB mouse plasma at 100 mg/kg, po; format: ADME, organism-based; parameters: time infinity, dose 100 mg/kg, route oral
[12] = Ratio of AUC in brain to plasma in wild type FVB mouse plasma at 100 mg/kg, po; format: ADME, organism-based; parameters: dose 100 mg/kg, route oral; details: brain and plasma
[13] = AUC (0 to last) in wild type FVB mouse brain at 100 mg/kg, ip; format: ADME, organism-based; parameters: time 0 - last, dose 100 mg/kg, route intraperitoneal
[14] = AUC (0 to last) in wild type FVB mouse brain at 2.5 mg/kg, iv; format: ADME, organism-based; parameters: time 0 - last, dose 2.5 mg/kg, route intravenous
[15] = AUC (0 to last) in wild type FVB mouse plasma at 2.5 mg/kg, iv; format: ADME, organism-based; parameters: time 0 - last, dose 2.5 mg/kg, route intravenous
[16] = Tmax in wild type FVB mouse plasma at 100 mg/kg, ip; format: ADME, organism-based; parameters: dose 100 mg/kg, route intraperitoneal
[17] = AUC (0 to infinity) in wild type FVB mouse brain at 100 mg/kg, ip; format: ADME, organism-based; parameters: dose 100 mg/kg, route intraperitoneal, time infinity
[18] = Tmax in wild type FVB mouse plasma at 2.5 mg/kg, iv; format: ADME, organism-based; parameters: dose 2.5 mg/kg, route intravenous
[19] = AUC (0 to last) in wild type FVB mouse plasma at 100 mg/kg, po; format: ADME, organism-based; parameters: time 0 - last, dose 100 mg/kg, route oral
[20] = Apparent plasma clearance in wild type FVB mouse plasma at 100 mg/kg, ip; format: ADME, organism-based; parameters: dose 100 mg/kg, route intraperitoneal
[21] = AUC (0 to last) in wild type FVB mouse plasma at 100 mg/kg, ip; format: ADME, organism-based; parameters: time 0 - last, dose 100 mg/kg, route intraperitoneal
[22] = AUC (0 to last) in wild type FVB mouse brain at 100 mg/kg, po; format: ADME, organism-based; parameters: time 0 - last, dose 100 mg/kg, route oral
[23] = system: Plasma; experiment: AUC (0 to infinity) in wild type FVB mouse plasma at 2.5 mg/kg, iv; format: ADME, organism-based; parameters: time infinity, dose 2.5 mg/kg, route intravenous; details: in vivo
[24] = Terminal half life in wild type FVB mouse plasma at 2.5 mg/kg, iv; format: ADME, organism-based; parameters: dose 2.5 mg/kg, route intravenous; details: read-out: beta t1/2 (converted)
[25] = Lipophilicity, logP of the compound; format: physicochemical; details: octanol/water
[26] = AUC (0 to infinity) in wild type FVB mouse brain at 2.5 mg/kg, iv; format: ADME, organism-based; parameters: time infinity, dose 2.5 mg/kg, route intravenous
[27] = system: Plasma; experiment: Bioavailability in wild type FVB mouse at 100 mg/kg, ip; format: ADME, organism-based; details: in vivo
[28] = system: Plasma; experiment: Apparent plasma clearance in wild type FVB mouse plasma at 2.5 mg/kg, iv; format: ADME, organism-based; parameters: dose 2.5 mg/kg, route intravenous; details: in vivo
[29] = Cmax in wild type FVB mouse plasma at 100 mg/kg, po; format: ADME, organism-based; parameters: dose 100 mg/kg, route oral
[30] = Apparent oral volume of distribution in wild type FVB mouse plasma at 2.5 mg/kg, iv; format: ADME, organism-based; parameters: dose 2.5 mg/kg
[31] = Terminal half life in wild type FVB mouse brain at 100 mg/kg, ip; format: ADME, organism-based; parameters: dose 100 mg/kg, route intraperitoneal; details: read-out: beta t1/2 (converted)
[32] = Tmax in wild type FVB mouse plasma at 100 mg/kg, po; format: ADME, organism-based; parameters: dose 100 mg/kg, route oral
[33] = Tmax in wild type FVB mouse brain at 2.5 mg/kg, iv; format: ADME, organism-based; parameters: dose 2.5 mg/kg, route intravenous
[34] = Cmax in wild type FVB mouse brain at 2.5 mg/kg, iv; format: ADME, organism-based; parameters: dose 2.5 mg/kg, route intravenous
[35] = system: Plasma; experiment: Bioavailability in wild type FVB mouse at 2.5 mg/kg, iv; format: ADME, organism-based; details: in vivo
[36] = Terminal half life in wild type FVB mouse plasma at 100 mg/kg, ip; format: ADME, organism-based; parameters: dose 100 mg/kg, route intraperitoneal; details: read-out: beta t1/2 (converted)
[37] = Terminal half life in wild type FVB mouse brain at 100 mg/kg, po; format: ADME, organism-based; parameters: dose 100 mg/kg, route oral; details: read-out: beta t1/2 (converted)
[38] = […] Kp, ratio of AUC in brain to plasma in wild type FVB mouse plasma at 10 mg/kg, ip; format: ADME, organism-based; parameters: dose 10 mg/kg, route intraperitoneal; details: brain and plasma
[39] = Apparent plasma clearance in wild type FVB mouse at 100 mg/kg, po; format: ADME, organism-based; parameters: dose 100 mg/kg, route oral
[40] = Oral bioavailability in wild type FVB mouse at 100 mg/kg; format: ADME, organism-based; details: plasma
[41] = Cmax in wild type FVB mouse plasma at 2.5 mg/kg, iv; format: ADME, organism-based; parameters: dose 2.5 mg/kg, route intravenous
[42] = AUC (0 to infinity) in wild type FVB mouse brain at 100 mg/kg, po; format: ADME, organism-based; parameters: time infinity, dose 100 mg/kg, route oral
[43] = Ratio of AUC in brain to plasma in wild type FVB mouse plasma at 100 mg/kg, ip; format: ADME, organism-based; parameters: dose 100 mg/kg, route intraperitoneal; details: brain and plasma
[44] = Ratio of AUC in brain to plasma in wild type FVB mouse plasma at 2.5 mg/kg, iv; format: ADME, organism-based; parameters: dose 2.5 mg/kg, route intravenous; details: brain and plasma

- AUC [1]: 90.3 µg·min/mL
- Vd/F [2]: 12.3 L
- Cmax [3]: 4340 ng/mL
- Tmax [4]: 4 h
- half-life [5]: 20 h
- Cmax [6]: 61 ng/mL
- half-life [7]: 1.5 h
- Vd/F [8]: 3.5 L
- Cmax [9]: 295 ng/mL
- Tmax [10]: 8 h
- AUC(0-inf) [11]: 24300 ng·h/mL
- Kp [12]: 4.31
- AUC(0-t) [13]: 332 ng·h/mL
- AUC(0-t) [14]: 2140 ng·h/mL
- AUC(0-t) [15]: 2310 ng·h/mL
- Tmax [16]: 0.5 h
- AUC(0-inf) [17]: 725 ng·h/mL
- Tmax [18]: 0.5 h
- AUC(0-t) [19]: 13200 ng·h/mL
- CL/F [20]: 33.2 mL/min
- AUC(0-t) [21]: 1060 ng·h/mL
- AUC(0-t) [22]: 64800 ng·h/mL
- AUC [23]: 161.4 µg·min/mL
- half-life [24]: 4.4 h
- logP [25]: 5.67
- AUC(0-inf) [26]: 2190 ng·h/mL
- F [27]: 13%
- CL/F [28]: 0.46 mL/min
- Cmax [29]: 780 ng/mL
- Vd/F [30]: 0.17 L
- half-life [31]: 9.2 h
- Tmax [32]: 8 h
- Tmax [33]: 0.5 h
- Cmax [34]: 1050 ng/mL
- F [35]: 100%
- half-life [36]: 4.3 h
- half-life [37]: 16 h
- Kp [38]: 0.0784
- CL/F [39]: 2.05 mL/min
- bioavailability [40]: 22%
- Cmax [41]: 564 ng/mL
- AUC(0-inf) [42]: 105000 ng·h/mL
- Kp [43]: 0.48
- Kp [44]: 0.82
Structure (SMILES): COc1cc2c(cc1OC)CN(CCc1ccc(NC(=O)c3cccc4c(=O)c5cccc(OC)c5[nH]c34)cc1)CC2 [ELACRIDAR]
